Test results taken from patent US8414878B2, “Irilis biopreparation based on bacillus-strain bacteria, bacillus subtilis and bacillus licheniformis contained therein” (priority 2005, dated 2013).

Tests used:
B. subtilis VKPMB-8611 = test: Sensitivity to antibiotics, delay zones of culture growth; format: cell-based, Bacillus subtilis; conditions: strain B. subtilis VKPMB-8611
[1] = test system: B. licheniformis VKPM B-8610; test: as above; format: cell-based, Bacillus licheniformis; conditions: strain B. licheniformis VKPM B-8610

Compound	Diameter of delay zones of cultures growth (B. subtilis VKPMB-8611)	Diameter of delay zones of cultures growth [1]
NCC[C@H](O)C(=O)N[C@@H]1C[C@H](N)[C@@H](O[C@H]2O[C@H](CN)[C@@H](O)[C@H](O)[C@H]2O)[C@H](O)[C@H]1O[C@H]1O[C@H](CO)[C@@H](O)[C@H](N)[C@H]1O [Amicacin]	22 ± 0.3 mm	17 + 0.2 mm
CC1(C)S[C@@H]2[C@H](NC(=O)[C@H](N)c3ccc(O)cc3)C(=O)N2[C@H]1C(=O)O [Amoscipillin]	19 ± 0.2 mm	16 + 0.1 mm
CC1(C)S[C@@H]2[C@H](NC(=O)[C@H](N)c3ccccc3)C(=O)N2[C@H]1C(=O)O [Ampicillin]	11 ± 0.2 mm	0 mm
CC1(C)S[C@@H]2[C@H](NC(=O)[C@H](NC(=O)N3CCNC3=O)c3ccccc3)C(=O)N2[C@H]1C(=O)O [Azlocillin]	19 ± 0.1 mm	16 + 0.1 mm
CC1(C)S[C@@H]2[C@H](NC(=O)Cc3ccccc3)C(=O)N2[C@H]1C(=O)O [Benzylpenicillin]	7 ± 0.1 mm	3 ± 0.2 mm
CC1(C)S[C@@H]2[C@H](NC(=O)C(C(=O)O)c3ccccc3)C(=O)N2[C@H]1C(=O)O (stereo partly drawn) [Carbenicillin]	23 ± 0.5 mm	20 + 0.1 mm
Cn1nnnc1SCC1=C(C(=O)O)N2C(=O)[C@@H](NC(=O)[C@H](O)c3ccccc3)[C@H]2SC1 [Cefamandole]	35 ± 0.3 mm	15 + 0.1 mm
Cc1nnc(SCC2=C(C(=O)O)N3C(=O)[C@@H](NC(=O)Cn4cnnn4)[C@H]3SC2)s1 [Cefazolin]	25 ± 0.2 mm	19 + 0.2 mm
CCN1CCN(C(=O)N[C@@H](C(=O)N[C@@H]2C(=O)N3C(C(=O)O)=C(CSc4nnnn4C)CS[C@H]23)c2ccc(O)cc2)C(=O)C1=O [Cefoperazone]	15 ± 0.2 mm	13 + 0.1 mm
CO/N=C(\C(=O)N[C@@H]1C(=O)N2C(C(=O)O)=C(COC(C)=O)CS[C@H]12)c1csc(N)n1 [Cefotaxime]	15 ± 0.1 mm	9 + 0.1 mm
CO[C@@]1(NC(=O)Cc2cccs2)C(=O)N2C(C(=O)O)=C(COC(N)=O)CS[C@@H]21 [Cefoxitin]	18 ± 0.1 mm	13 + 0.1 mm
CC(C)(O/N=C(\C(=O)N[C@@H]1C(=O)N2C(C(=O)[O-])=C(C[n+]3ccccc3)CS[C@H]12)c1csc(N)n1)C(=O)O [Ceftazidime]	6 ± 0.3 mm	13 + 02 mm
CO/N=C(\C(=O)N[C@@H]1C(=O)N2C(C(=O)O)=CCS[C@H]12)c1csc(N)n1 [Ceftizoxime]	3 ± 0.1 mm	11 ± 0.1 mm
CO/N=C(\C(=O)N[C@@H]1C(=O)N2C(C(=O)O)=C(CSc3nc(=O)c(=O)[nH]n3C)CS[C@H]12)c1csc(N)n1 [Ceftriaxone]	20 + 0.4 mm	12 + 02 mm
CO/N=C(\C(=O)N[C@@H]1C(=O)N2C(C(=O)O)=C(COC(N)=O)CS[C@H]12)c1ccco1 [Cefuroxime]	2 ± 0.1 mm	3 ± 0.1 mm
CC(=O)OCC1=C(C(=O)O)N2C(=O)[C@@H](NC(=O)Cc3cccs3)[C@H]2SC1 [Cephalothin]	35 ± 0.1 mm	21 + 0.3 mm
O=C(N[C@H](CO)[C@H](O)c1ccc([N+](=O)[O-])cc1)C(Cl)Cl [Chloramphenicol]	18 ± 0.3 mm	10 ± 0.1 mm
CCC[C@@H]1C[C@@H](C(=O)N[C@@H]([C@H]2O[C@H](SC)[C@H](O)[C@@H](O)[C@H]2O)[C@H](C)Cl)N(C)C1 [Clindamycin]	9 + 0.2 mm	12 + 0.1 mm

Compound	Diameter of delay zones of cultures growth (B. subtilis VKPMB-8611)	Diameter of delay zones of cultures growth [1]
C[C@@H](O)[C@H]1C(=O)N2C(C(=O)O)=C(SCCN=CN)C[C@H]12 [Imipenems]	38 ± 0.2 mm	30 + 0.1 mm
NC[C@H]1O[C@H](O[C@H]2[C@H](O)[C@@H](O[C@H]3O[C@H](CO)[C@@H](O)[C@H](N)[C@H]3O)[C@H](N)C[C@@H]2N)[C@H](O)[C@@H](O)[C@@H]1O [Kanamycin]	22 ± 0.2 mm	21 + 0.1 mm
COc1cccc(OC)c1C(=O)N[C@@H]1C(=O)N2[C@@H]1SC(C)(C)[C@@H]2C(=O)O [Methicillin]	20 ± 0.1 mm	10 ± 0D
CC1(C)S[C@@H]2[C@H](NC(=O)[C@H](NC(=O)N3CCN(S(C)(=O)=O)C3=O)c3ccccc3)C(=O)N2[C@H]1C(=O)O [Mezlocillin]	21 ± 0.2 mm	15 + 0.2 mm
CO[C@@]1(NC(=O)C(C(=O)O)c2ccc(O)cc2)C(=O)N2C(C(=O)O)=C(CSc3nnnn3C)CO[C@@H]21 (stereo partly drawn) [Mocsalactam]		12 + 03 mm
CCn1cc(C(=O)O)c(=O)c2ccc(C)nc21 [Nalidixic acid]	21 ± 0.1 mm	15 + 0.1 mm
O=C1CN(/N=C/c2ccc([N+](=O)[O-])o2)C(=O)N1 [Nitrofurantoin]	15 + 0.2 mm	20 + 0.1 mm
CCn1cc(C(=O)O)c(=O)c2cc(F)c(N3CCNCC3)cc21 [Norfloxacin]	24 ± 0.2 mm	25 + 0.2 mm
Cc1onc(-c2ccccc2)c1C(=O)N[C@@H]1C(=O)N2[C@@H]1SC(C)(C)[C@@H]2C(=O)O [Oxacillin]	15 ± 0.3 mm	11 + 0.1 mm
CCN1CCN(C(=O)N[C@@H](C(=O)N[C@@H]2C(=O)N3[C@@H]2SC(C)(C)[C@@H]3C(=O)O)c2ccccc2)C(=O)C1=O [Piperacillin]	15 + 03 mm	11 + 0.1 mm
CN(C)[C@@H]1C(O)=C(C(N)=O)C(=O)[C@@]2(O)C(O)=C3C(=O)c4c(O)cccc4[C@@](C)(O)[C@H]3C[C@@H]12 [Tetracycline]	26 + 0.1 mm	24 + 0.1 mm
CC1(C)S[C@@H]2[C@H](NC(=O)[C@H](C(=O)O)c3ccsc3)C(=O)N2[C@H]1C(=O)O [Ticarcillin]	25 ± 0.4 mm	21 + 0.2 mm
NC[C@H]1O[C@H](O[C@H]2[C@H](O)[C@@H](O[C@H]3O[C@H](CO)[C@@H](O)[C@H](N)[C@H]3O)[C@H](N)C[C@@H]2N)[C@H](N)C[C@@H]1O [Tobramycin]	25 ± 0.1 mm	20 + 0.2 mm
COc1cc(Cc2cnc(N)nc2N)cc(OC)c1OC [Ttrimethoprim]	23 ± 0.1 mm	25 + 0.2 mm
CN[C@H](CC(C)C)C(=O)N[C@H]1C(=O)N[C@@H](CC(N)=O)C(=O)N[C@H]2C(=O)N[C@H]3C(=O)N[C@H](C(=O)N[C@H](C(=O)O)c4cc(O)cc(O)c4-c4cc3ccc4O)[C@H](O)c3ccc(c(Cl)c3)Oc3cc2cc(c3O[C@@H]2O[C@H](CO)[C@@H](O)[C@H](O)[C@H]2O[C@H]2C[C@](C)(N)[C@H](O)[C@H](C)O2)Oc2ccc(cc2Cl)[C@H]1O [Vancomycin]	12 ± 0.1 mm	10 ± 0.1 mm
Gentamicin	25 ± 0.3 mm	19 + 0.2 mm
Polymyxin E	11 + 0.1 mm	10 + 0.2 mm
